Experimental data as given in PubChem BioAssay AID1963970 (Molecular Pharmacology Branch, DTP, NCI, 2024).
pIC50: −log10 of the molar value. Several values for one entry are separate records, joined by “and”; a condition that tells them apart may be missing. Equal entries are not always repeated. Blank lines part the entries; values can stand above or below the compound they belong to.

System: 931267-113-T-J1-PDC multicell spheroid viability
Assay: Anticancer human tumor 931267-113-T-J1-PDC patient-derived colon adenocarcinoma cell line growth inhibition [PI3K]
Details: for viability, T/C: stronger effect = lower value
How it was run: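 Tumor cells were combined with HUVEC and MSCs into spheroids, then dosed with PI3K-inhibitor combinations over half-log ranges capped near clinical Cmax or 10 microM.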
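Further: viability read 7 days after compound addition.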

pIC50 (curve of compound): < 5.00
Compound: C[C@@H](NC(=O)c1ncnc(N)c1Cl)c1ncc(C(=O)Nc2cc(C(F)(F)F)c(Cl)cn2)s1
viability, T/C (compound 0.0316 µM): 117% [middle of 4 runs] | viability, T/C (compound 0.1 µM): 112% [middle of 4 runs] | viability, T/C (compound 0.316 µM): 111% [middle of 4 runs] | viability, T/C (compound 1 µM): 114% [middle of 4 runs] | viability, T/C (compound 3.16 µM): 102% (2×) and 112% and 103% | viability, T/C (compound 10 µM): 78% [middle of 4 runs]

pIC50 (curve of first compound, second compound 0.0316 µM): < 5.00 | pIC50 (curve of first compound, second compound 0.1 µM): < 5.00 | pIC50 (curve of first compound, second compound 0.316 µM): < 5.00 | pIC50 (curve of first compound, second compound 1 µM): < 5.00 | pIC50 (curve of first compound, second compound 3.16 µM): < 5.00 | pIC50 (curve of first compound, second compound 10 µM): < 5.00
Compound: CC(C)NCC(C(=O)N1CCN(c2ncnc3c2C(C)CC3O)CC1)c1ccc(Cl)cc1 (stereo unspecified) + CC(Nc1ncnc2nc[nH]c12)c1cc2cccc(Cl)c2c(=O)n1-c1ccccc1
viability, T/C (second compound 0.0316 µM, first compound 0.0316 µM): 97.2% | viability, T/C (second compound 0.0316 µM, first compound 0.1 µM): 99.5% | viability, T/C (second compound 0.0316 µM, first compound 0.316 µM): 92.1% | viability, T/C (second compound 0.0316 µM, first compound 1 µM): 101% | viability, T/C (second compound 0.0316 µM, first compound 3.16 µM): 97.1% | viability, T/C (second compound 0.0316 µM, first compound 10 µM): 81.6% | viability, T/C (second compound 0.1 µM, first compound 0.0316 µM): 108% | viability, T/C (second compound 0.1 µM, first compound 0.1 µM): 95.6% | viability, T/C (second compound 0.1 µM, first compound 0.316 µM): 100% | viability, T/C (second compound 0.1 µM, first compound 1 µM): 98.8% | viability, T/C (second compound 0.1 µM, first compound 3.16 µM): 97.1% | viability, T/C (second compound 0.1 µM, first compound 10 µM): 74.7% | viability, T/C (second compound 0.316 µM, first compound 0.0316 µM): 108% | viability, T/C (second compound 0.316 µM, first compound 0.1 µM): 107% | viability, T/C (second compound 0.316 µM, first compound 0.316 µM): 106% | viability, T/C (second compound 0.316 µM, first compound 1 µM): 94.7% | viability, T/C (second compound 0.316 µM, first compound 3.16 µM): 99.6% | viability, T/C (second compound 0.316 µM, first compound 10 µM): 85% | viability, T/C (second compound 1 µM, first compound 0.0316 µM): 105% | viability, T/C (second compound 1 µM, first compound 0.1 µM): 107% | viability, T/C (second compound 1 µM, first compound 0.316 µM): 93% | viability, T/C (second compound 1 µM, first compound 1 µM): 99.6% | viability, T/C (second compound 1 µM, first compound 3.16 µM): 99.1% | viability, T/C (second compound 1 µM, first compound 10 µM): 80.7% | viability, T/C (second compound 3.16 µM, first compound 0.0316 µM): 103% | viability, T/C (second compound 3.16 µM, first compound 0.1 µM): 100% | viability, T/C (second compound 3.16 µM, first compound 0.316 µM): 89.7% | viability, T/C (second compound 3.16 µM, first compound 1 µM): 94.6% | viability, T/C (second compound 3.16 µM, first compound 3.16 µM): 90.9% | viability, T/C (second compound 3.16 µM, first compound 10 µM): 71.7% | viability, T/C (second compound 10 µM, first compound 0.0316 µM): 95.2% | viability, T/C (second compound 10 µM, first compound 0.1 µM): 86% | viability, T/C (second compound 10 µM, first compound 0.316 µM): 86.8% | viability, T/C (second compound 10 µM, first compound 1 µM): 87.7% | viability, T/C (second compound 10 µM, first compound 3.16 µM): 88.7% | viability, T/C (second compound 10 µM, first compound 10 µM): 75.1%

pIC50 (curve of compound): < 7.00
Compound: CC(=O)c1c(C)c2cnc(Nc3ccc(N4CCNCC4)cn3)nc2n(C2CCCC2)c1=O
viability, T/C (compound 0.000316 µM): 112% and 99.6% and 105% | viability, T/C (compound 0.001 µM): 110% and 101% and 102% | viability, T/C (compound 0.00316 µM): 103% and 113% and 106% | viability, T/C (compound 0.01 µM): 108% and 111% and 103% | viability, T/C (compound 0.0316 µM): 99.5% and 106% and 104% | viability, T/C (compound 0.1 µM): 89.5% and 91.3% and 105%
